In PubChem BioAssay (NCI):
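Interpolation was linear, between the two tested concentrations surrounding the appropriate level; five concentrations were tested over 48 hours in 96-well plates. TGI: concentration producing complete growth inhibition.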

Experiments:
Assay in all cases: NCI tumour cell line growth inhibition, 48 h
[1] = tested on: RPMI-8226 leukemia
[2] = tested on: UACC-257 melanoma
[3] = tested on: CAKI-1 renal
[4] = tested on: RXF 393 renal
[5] = tested on: OVCAR-3 ovarian
[6] = tested on: SK-MEL-5 melanoma
[7] = tested on: CCRF-CEM leukemia
[8] = tested on: KM20L2 colon
[9] = tested on: SNB-78 CNS
[10] = tested on: A498 renal
[11] = tested on: A549 NSCLC
[12] = tested on: HT29 colon
[13] = tested on: SN12C renal
[14] = tested on: SF-539 CNS
[15] = tested on: SW-620 colon
[16] = tested on: NCI-H226 lung
[17] = tested on: NCI-H522 lung
[18] = tested on: SK-OV-3 ovarian
[19] = tested on: EKVX NSCLC
[20] = tested on: M19-MEL melanoma
[21] = tested on: NCI-H23 lung
[22] = tested on: TK-10 renal
[23] = tested on: DMS 273 small cell lung
[24] = tested on: OVCAR-8 ovarian
[25] = tested on: M14 melanoma
[26] = tested on: NCI-H460 lung
[27] = tested on: HOP-62 NSCLC
[28] = tested on: SK-MEL-2 melanoma
[29] = tested on: LXFL 529 NSCLC
[30] = tested on: MALME-3M melanoma
[31] = tested on: SF-268 CNS
[32] = tested on: K-562 leukemia
[33] = tested on: MOLT-4 leukemia
[34] = tested on: HCC-2998 colon
[35] = tested on: IGROV1 ovarian
[36] = tested on: UO-31 renal
[37] = tested on: SK-MEL-28 melanoma
[38] = tested on: DMS 114 small cell lung
[39] = tested on: SF-295 CNS
[40] = tested on: XF 498 CNS
[41] = tested on: KM12 colon
[42] = tested on: HL-60(TB) leukemia
[43] = tested on: UACC-62 melanoma
[44] = tested on: SNB-19 CNS
[45] = tested on: 786-0 renal
[46] = tested on: RXF-631 renal
[47] = tested on: SNB-75 CNS
[48] = tested on: DLD-1 colon
[49] = tested on: HCT-15 colon
[50] = tested on: LOX IMVI melanoma
[51] = tested on: COLO 205 colon
[52] = tested on: U251 CNS
[53] = tested on: HOP-92 NSCLC
[54] = tested on: OVCAR-4 ovarian
[55] = tested on: OVCAR-5 ovarian
[56] = tested on: HCT-116 colon
[57] = tested on: HOP-18 NSCLC
[58] = tested on: ACHN renal
[59] = tested on: SR leukemia

Measured: TGI

O=C(NCCO)c1ccc([N+](=O)[O-])cc1
> 100 µM: [1] | [2] | [3] | [4] | [5] | [6] | [7] | [8] | [9] | [10] | [11] | [12] | [13] | [14] | [15] | [16] | [17] | [18] | [19] | [20] | [21] | [22] | [23] | [24] | [25] | [26] | [27] | [28] | [29] | [30] | [31] | [32] | [33] | [34] | [35] | [36] | [37] | [38] | [39] | [40] | [41] | [42] | [43] | [44] | [45] | [46] | [47] | [48] | [49] | [50] | [51] | [52]

Cc1noc2c1C(=O)CCC2
> 100 µM: [1] | [2] | [3] | [4] | [5] | [53] | [7] | [54] | [8] | [55] | [9] | [12] | [13] | [14] | [15] | [16] | [17] | [18] | [19] | [20] | [22] | [24] | [25] | [28] | [29] | [30] | [31] | [32] | [33] | [56] | [36] | [37] | [38] | [57] | [40] | [42] | [43] | [45] | [47] | [48] | [50] | [51] | [58] | [59]
